“And” between values parts separate entries of the source, which are not always exact repeats. Identical values can stand only once. Like-named read-outs stand apart in the source and are kept apart here.
Key:
VMAT2 [1] = target: VMAT2 (Macaca fascicularis, UniProt A0A2K5UVB8); experiment: VMAT2 occupancy in NHP brain after i.v. NBI-98782, [^18F]AV-133 PET; type: in vivo, cynomolgus monkeys (Macaca fascicularis); conditions: cynomolgus monkey
From the text: A radioligand, [^18F]AV-133, has been used to image and quantify brain VMAT2 in vivo.
Two female non-naïve cynomolgus monkeys (Macaca fascicularis) were used in this study. The animals were judged to be in good health before the start of the study. At study origination, animals A7701 (Tag ID A5028) and A7702 (Tag ID A5029) were 4.45 kg/4 years 11 months and 4.75 kg/3 years 10 months, respectively.
Dynamic data were acquired in the MicroPET Focus-220 camera (Siemens Microsystems, Knoxville, TN). Emission data were collected for 120 min post-injection and reconstructed into a series of 33 frames and all standard corrections were applied: normalization, random, scatter and attenuation (via CT scan). Dynamic brain PET images were transferred and analyzed using the image processing PMOD software package v3.802 (PMOD Technologies, Zurich, Switzerland). The PET images were rigidly aligned to a previously acquired animal's brain T1 MRI and then spatially normalized to a common cynomolgus MRI template for anatomical brain region definition.
Volumes of interest (VOIs) defined in the cynomolgus template space (see e.g., Ballanger et al. Neuroimage, 2013, 77:26-43) were applied to the spatially normalized PET images to compute time-activity curves (TACs, kBq/cm^3) for caudate (0.96 cm^3), putamen (1.34 cm^3) and occipital (8.61 cm^3). TACs and images (averaged between 90-120 min) were presented in Standard Uptake Value (SUV) units (g/mL) normalized by the weight of the animal and the injected dose
Non-invasive Logan graphical analysis (start time of fit, t*=30 min) was used to estimate regional non-displaceable binding potential (BPND) using the TACs in the caudate and putamen, with the cerebellar cortex as the reference TAC. […] Target occupancy was calculated according to the Equation 2-1.
where h is the Hill slope (h=1.0) and C is the mean of observed plasma concentrations during the scanning interval (60 to 180 minutes post-dose).

[2] = NBI-98782 concentration in cynomolgus monkey plasma by LC-MS/MS; type: in vivo, cynomolgus monkeys (Macaca fascicularis)
Experimental: During each scan, whole blood PK samples were collected (in K2 EDTA tubes) at pre-dose (−5 min), and post-dose at 4 (approximately 1 min after completion of bolus), 30, 60 (just prior to [^18F]AV-133 radiopharmaceutical administration), 90, 120, 150, 180 (end of scan) minutes after test article administration. PK samples were approximately 1 mL each (8 mL total, including pre-dose sample).
Plasma samples were processed using liquid-liquid extraction with the additional of a stable isotopic labeled internal standard ^13C-83198. Processed samples were chromatographically separated on a C18 reversed phase column and coupled to a Sciex API 4000 triple quadrupole mass spectrometer for detection.
Quantitation was performed using a weighted 1/×2 linear least squares regression analysis generated from calibration standards prepared on the day of extraction. The liquid-liquid extraction began with the addition of internal standard solution (10.0 μL of approximately 400 ng/mL of [^13C]-radiolabeled [^13C]-NBI-98854 (i.e., [^13C]-valbenazine) and [^13C]-NBI-83198 (a racemic mixture of two dihydrotetrabenazine enantiomers). After adding 50.0 μL of sodium carbonate solution (0.2 M) and 2.00 mL of methyl tert-butyl ether to all samples, the tubes were sealed, vortexed, and centrifuged. Subsequently, the organic layer was transferred to clean tubes and evaporated to dryness. The samples were then reconstituted with 150 μL of reconstitution solution (water/methanol/acetic acid; 80:20:0.2), sealed, vortexed, sonicated and centrifuged. The reconstituted extract was then transferred into a 96-well plate. […] A triple quadrupole mass spectrometer (Sciex API 4000) equipped with TurboIonSpray source was used in the positive ion mode.

VMAT2 [3] = target: T1, VMAT2 (Homo sapiens, UniProt Q05940); conditions: Freeby et al., Mol. Imaging Biol. 2016; cited from earlier work
T1 sequence (Q05940 whole entry): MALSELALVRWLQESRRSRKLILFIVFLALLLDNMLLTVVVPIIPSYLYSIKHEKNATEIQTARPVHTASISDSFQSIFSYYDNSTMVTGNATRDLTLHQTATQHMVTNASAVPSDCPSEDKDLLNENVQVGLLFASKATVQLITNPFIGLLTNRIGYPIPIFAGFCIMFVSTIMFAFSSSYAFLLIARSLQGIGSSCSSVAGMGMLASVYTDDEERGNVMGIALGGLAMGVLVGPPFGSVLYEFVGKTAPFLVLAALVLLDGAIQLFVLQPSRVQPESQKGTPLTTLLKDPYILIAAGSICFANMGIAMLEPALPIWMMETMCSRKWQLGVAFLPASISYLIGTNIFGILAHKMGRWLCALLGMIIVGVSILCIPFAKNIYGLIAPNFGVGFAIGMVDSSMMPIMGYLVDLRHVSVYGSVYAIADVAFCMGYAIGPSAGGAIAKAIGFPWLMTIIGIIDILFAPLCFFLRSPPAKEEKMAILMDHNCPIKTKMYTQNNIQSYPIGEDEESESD

VMAT2 [4] = experiment: Estimated VMAT2 target occupancy and clinical observations in cynomolgus monkey; type: in vivo; conditions: ~30 min to 1 h post-dosing, at estimated 96%-98% VMAT2 target occupancy
From the text: As described below, there were adverse events at these doses, enabling a benchmarking of % TO values that could lead to adverse events.

synaptic dopamine = experiment: Valbenazine effects on the dopamine system, [^11C]-PHNO PET; type: in vivo, human; conditions: 40-160 mg oral valbenazine, healthy volunteers, interim analysis, eight participants
From the text: By way of example only, in some embodiments, “synaptic dopamine” can be measured non-invasively as follows. Subjects receive an oral dose of a VMAT2 inhibitor before administration of [^11C]-PHNO, with PET imaging occurring around the time of maximal VMAT2 inhibitor plasma concentration. The binding potential relative to the non-displaceable binding (BPND) in the putamen, caudate, and ventral striatum, is used as the primary endpoint. The cerebellum is used as the reference region to estimate the regional BPND. The measured increases in [^11C]-PHNO BPND relative to baseline (ΔBPND) correspond to decreases in synaptic dopamine following VMAT2 inhibitor administration. Other radioligands can be used. Alternatively, in some embodiments, indirect measurements of synaptic dopamine can be achieved via invasive techniques such as methods described in Huang M., et al., Pharmacology, Biochemistry and Behavior 190 (2020) 172872; and Bosche S. L., et al., Frontiers in Neuroscience, November 2021|Volume 15|Article 728092.
Interim imaging and tolerability data in an ongoing study were collected and analyzed in cohorts of 2-4 healthy volunteers. […] Plasma concentrations of valbenazine and (+)-α-dTBZ (dihydrotetrabenazine), the active metabolite of valbenazine, were measured at the start and end of each post-valbenazine PET scan. […]

[5] = Adverse events in healthy volunteers receiving valbenazine; type: in vivo, human; conditions: 40-160 mg valbenazine
Experimental: Interim imaging and tolerability data in an ongoing study were collected and analyzed in cohorts of 2-4 healthy volunteers. For each scan, participants received an injection of the D2/D3 dopamine receptor agonist radioligand [^11C](+)4-propyl-3,4,4a,5,6,10b-hexahydro-2H-naphtho[1,2-b][1,4]oxazin-9-ol ([^11C]-PHNO), followed by 90 min of data acquisition using Siemens Biograph PET/CT. For post-valbenazine scans, participants received an oral dose of valbenazine 6-8 hours before the administration of [^11C]-PHNO, with PET imaging occurring around the time of maximal valbenazine plasma concentration. The binding potential relative to the non-displaceable binding (BPND) in the putamen, caudate, and ventral striatum, was used as the primary endpoint. The cerebellum was used as the reference region to estimate the regional BPND. Decreases in synaptic dopamine following valbenazine administration corresponded to an increase in [^11C]-PHNO BPND relative to baseline (ΔBPND). Plasma concentrations of valbenazine and (+)-α-dTBZ (dihydrotetrabenazine), the active metabolite of valbenazine, were measured at the start and end of each post-valbenazine PET scan. The mean plasma (+)-α-dTBZ concentration (Cave) was matched to the ΔBPND for each participant to provide an exposure-response curve.

VMAT2 [6] = target: T1, VMAT2; experiment: Estimated VMAT2 target occupancy in humans for valbenazine from NHP PET free EC50 and human PK; type: in vivo; set-up: The free EC50 derived from NHP PET was then used to estimate % TO in humans; from tissue; host or cells: human brain in vivo (modelled, not imaged)

VMAT2 (Macaca fascicularis, UniProt A0A2K5UVB8), sequence (A0A2K5UVB8 entry or part of it): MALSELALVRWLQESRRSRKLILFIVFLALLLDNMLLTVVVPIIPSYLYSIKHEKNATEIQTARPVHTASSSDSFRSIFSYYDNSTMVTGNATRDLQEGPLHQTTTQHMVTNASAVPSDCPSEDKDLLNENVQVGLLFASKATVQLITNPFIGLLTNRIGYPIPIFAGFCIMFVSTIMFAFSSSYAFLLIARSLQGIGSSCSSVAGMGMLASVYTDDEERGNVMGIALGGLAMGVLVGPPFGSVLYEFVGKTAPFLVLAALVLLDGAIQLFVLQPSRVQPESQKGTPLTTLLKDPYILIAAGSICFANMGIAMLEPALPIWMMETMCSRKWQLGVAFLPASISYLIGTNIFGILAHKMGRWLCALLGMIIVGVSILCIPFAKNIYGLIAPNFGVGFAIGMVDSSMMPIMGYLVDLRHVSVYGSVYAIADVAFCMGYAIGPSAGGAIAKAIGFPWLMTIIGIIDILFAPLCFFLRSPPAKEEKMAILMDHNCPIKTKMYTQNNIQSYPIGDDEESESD

## COc1cc2c(cc1OC)[C@H]1C[C@@H](O)[C@H](CC(C)C)CN1CC2 [NBI-98782, (2R, 3R,11bR)-3-isobutyl-9,10-dimethoxy-1,3,4,6,7,11b-hexahydro-2H-pyrido[2,1-a]isoquinolin-2-ol]
VMAT2 [1]; iv, read-out: % Occ, animal A7701, Caudate, 0.04 mg/kg
  receptor occupancy at 0.04 mg/kg: 59.1%
VMAT2 [1]; iv, read-out: % Occ, animal A7701, Caudate, 0.13 mg/kg
  receptor occupancy at 0.13 mg/kg: 67.9%
VMAT2 [1]; iv, read-out: % Occ, animal A7701, Caudate, 0.5 mg/kg
  receptor occupancy at 0.5 mg/kg: 89.4%
VMAT2 [1]; iv, read-out: % Occ, animal A7701, Putamen, 0.04 mg/kg
  receptor occupancy at 0.04 mg/kg: 55.2%
VMAT2 [1]; iv, read-out: % Occ, animal A7701, Putamen, 0.13 mg/kg
  receptor occupancy at 0.13 mg/kg: 70.8%
VMAT2 [1]; iv, read-out: % Occ, animal A7701, Putamen, 0.5 mg/kg
  receptor occupancy at 0.5 mg/kg: 89.6%
VMAT2 [1]; iv, read-out: % Occ, animal A7702, Caudate, 0.016 mg/kg
  receptor occupancy at 0.016 mg/kg: 18.7%
VMAT2 [1]; iv, read-out: % Occ, animal A7702, Putamen, 0.016 mg/kg
  receptor occupancy at 0.016 mg/kg: 18.3%
VMAT2 [1]; iv, read-out: Occ, animal A7702, Caudate, 0.13 mg/kg
  receptor occupancy at 0.13 mg/kg: 77.5%
VMAT2 [1]; iv, read-out: Occ, animal A7702, Putamen, 0.13 mg/kg
  receptor occupancy at 0.13 mg/kg: 79.1%
VMAT2 [1]; read-out: Target Occupancy, Mean of Putamen and Caudate, A7701, total mass dose 0.04 mg/kg
  receptor occupancy at 0.04 mg/kg: 57%
VMAT2 [1]; read-out: Target Occupancy, Mean of Putamen and Caudate, A7701, total mass dose 0.13 mg/kg
  receptor occupancy at 0.13 mg/kg: 69%
VMAT2 [1]; read-out: Target Occupancy, Mean of Putamen and Caudate, A7701, total mass dose 0.5 mg/kg
  receptor occupancy at 0.5 mg/kg: 90%
VMAT2 [1]; read-out: Target Occupancy, Mean of Putamen and Caudate, A7702, total mass dose 0.016 mg/kg
  receptor occupancy at 0.016 mg/kg: 19%
VMAT2 [1]; read-out: Target Occupancy, Mean of Putamen and Caudate, A7702, total mass dose 0.13 mg/kg
  receptor occupancy at 0.13 mg/kg: 78%
[2]; A7701, total mass dose 0.04 mg/kg i.v.
  Mean ng/mL NBI-98782 Concentration during PET Scan (60-180 min): 2.9 ng/mL
[2]; A7701, total mass dose 0.5 mg/kg i.v.
  Mean ng/mL NBI-98782 Concentration during PET Scan (60-180 min): 44.5 ng/mL
[2]; A7702, total mass dose 0.016 mg/kg i.v.
  Mean ng/mL NBI-98782 Concentration during PET Scan (60-180 min): 1.7 ng/mL
[2]; A7702, total mass dose 0.13 mg/kg i.v.
  Mean ng/mL NBI-98782 Concentration during PET Scan (60-180 min): 14.9 ng/mL

## COc1cc2c(cc1OCCC[18F])CCN1C[C@@H](CC(C)C)[C@H](O)C[C@H]21 [[^18F]AV-133]
VMAT2 [3]
  Test-retest for BPND: 9.4%

## COc1cc2c(cc1OC)[C@H]1C[C@@H](OC(=O)[C@@H](N)C(C)C)[C@H](CC(C)C)CN1CC2 [valbenazine, (S)-2-amino-3-methyl-butyric acid (2R, 3R,11bR)-3-isobutyl-9,10-dimethoxy-1,3,4,6,7,11b-hexahydro-2H-pyrido[2,1-a]isoquinolin-2-yl ester]
VMAT2 [4]
  clinical observations: partially closed eyes (ptosis) (in all monkeys), decreased activity (in ⅔ monkeys), and salivation (in 1 monkey)
Synaptic dopamine
  increase in [^11C]-PHNO ΔBPND: 21-44% and 20-40%
[5]
  Adverse events: consistent with the known safety and tolerability profile of valbenazine
VMAT2 [6]; doses clinically effective in tardive dyskinesia
  estimated VMAT2 occupancy maintained throughout each 24-hour period: ≥ 73%
VMAT2 [6]; valbenazine 40 mg once-daily, read-out: estimated target occupancy for Cave
  receptor occupancy at 40 mg: ~80%
